Laboratory results as given in publication PMC6628712 (Journal of enzyme inhibition and medicinal chemistry, 2016).
Where two headings read alike, the source gives them in different places.

Assays:
[1] = total plasma, clinically relevant dose as in column Oral Dose; ref [64]–[73]; cited from earlier work
CYP2C8 = target: T1, CYP2C8 (Homo sapiens, UniProt P10632); settings: read-out: CYP2C8 IC50, cited from earlier work
T1 sequence (P10632 1-490): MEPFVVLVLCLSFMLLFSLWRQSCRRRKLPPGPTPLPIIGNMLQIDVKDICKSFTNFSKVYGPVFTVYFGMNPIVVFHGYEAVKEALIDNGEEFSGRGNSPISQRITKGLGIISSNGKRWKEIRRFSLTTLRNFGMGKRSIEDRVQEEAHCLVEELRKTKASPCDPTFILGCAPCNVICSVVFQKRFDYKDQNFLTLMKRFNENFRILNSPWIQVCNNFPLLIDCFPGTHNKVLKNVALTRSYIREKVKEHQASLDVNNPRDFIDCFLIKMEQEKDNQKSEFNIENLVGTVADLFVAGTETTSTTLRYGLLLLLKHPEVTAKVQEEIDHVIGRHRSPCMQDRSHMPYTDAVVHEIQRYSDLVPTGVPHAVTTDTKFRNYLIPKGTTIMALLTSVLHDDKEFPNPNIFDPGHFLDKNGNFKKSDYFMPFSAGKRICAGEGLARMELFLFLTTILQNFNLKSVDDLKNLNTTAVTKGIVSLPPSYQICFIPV

CYP26A1 [2] = target: T2, CYP26A1 (Homo sapiens, UniProt O43174); assay: Inhibition of CYP26A1-catalyzed tazarotenic acid sulfoxide formation; type: biochemical
T2 sequence (O43174 1-497): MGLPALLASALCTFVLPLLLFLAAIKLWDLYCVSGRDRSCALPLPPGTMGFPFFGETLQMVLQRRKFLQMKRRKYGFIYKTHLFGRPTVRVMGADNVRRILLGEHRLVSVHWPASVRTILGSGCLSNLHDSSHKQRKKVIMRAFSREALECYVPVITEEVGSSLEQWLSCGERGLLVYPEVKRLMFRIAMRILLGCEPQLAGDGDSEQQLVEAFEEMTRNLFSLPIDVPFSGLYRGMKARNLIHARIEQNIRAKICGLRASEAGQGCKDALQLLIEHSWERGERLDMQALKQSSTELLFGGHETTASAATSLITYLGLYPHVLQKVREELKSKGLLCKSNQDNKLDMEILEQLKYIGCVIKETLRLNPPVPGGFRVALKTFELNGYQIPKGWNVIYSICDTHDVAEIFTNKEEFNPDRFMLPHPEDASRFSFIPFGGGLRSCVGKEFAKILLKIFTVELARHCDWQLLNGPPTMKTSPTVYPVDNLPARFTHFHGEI

[3] = unbound fraction in plasma; ref [64]–[73]; cited from earlier work
[4] = human, in vivo
CYP26B1 = target: T3, CYP26B1 (Homo sapiens, UniProt Q9NR63); assay: Inhibition of CYP26B1-catalyzed tazarotenic acid sulfoxide formation; type: biochemical; settings: recombinant CYP26B1, probe tazarotenic acid sulfoxide formation, ± standard error
T3 sequence (Q9NR63 1-512): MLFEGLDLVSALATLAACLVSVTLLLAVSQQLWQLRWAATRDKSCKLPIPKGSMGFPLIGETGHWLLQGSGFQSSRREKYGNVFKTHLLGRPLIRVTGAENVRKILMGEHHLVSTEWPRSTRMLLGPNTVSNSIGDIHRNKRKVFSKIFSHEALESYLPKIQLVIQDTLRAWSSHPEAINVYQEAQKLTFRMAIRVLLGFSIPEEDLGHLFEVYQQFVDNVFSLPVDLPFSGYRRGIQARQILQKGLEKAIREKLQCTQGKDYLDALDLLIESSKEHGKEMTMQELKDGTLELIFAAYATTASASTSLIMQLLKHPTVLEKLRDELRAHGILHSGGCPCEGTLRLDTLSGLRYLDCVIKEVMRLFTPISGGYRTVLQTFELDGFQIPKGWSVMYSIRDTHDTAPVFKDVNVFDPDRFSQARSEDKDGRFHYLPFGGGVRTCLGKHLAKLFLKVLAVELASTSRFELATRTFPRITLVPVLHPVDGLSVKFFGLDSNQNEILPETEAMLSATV

CYP26A1 [5] = target: T2, CYP26A1; assay: Spectral binding determination, CYP26A1; settings: UV-difference spectra
CYP26A1 [6] = settings: in vitro; ref [97]; cited from earlier work
[7] = patient with acute promyelocytic leukemia, co-administration of oral fluconazole; ref [102]; cited from earlier work
[8] = substrate amodiaquine, ref [51]
[9] = CYP26A1 IC50, tazarotenic acid, recombinant CYP26A1, probe tazarotenic acid sulfoxide formation, ± standard error
[10] = substrate montelukast (HLM), ref [44]
[11] = read-out: CYP26A1 IC50, tazarotenic acid, recombinant CYP26A1, probe tazarotenic acid sulfoxide formation, ± standard error
[12] = read-out: CYP26B1 IC50, tazarotenic acid

Compound	Cmax [1] [nM]	IC50 (CYP2C8; [8]) [nM]	IC50 (CYP26A1 [2]; [9]) [nM]	fu,plasma [3]	Cmax,u [4] [nM]	IC50 (CYP26B1; CYP26B1 IC50, tazarotenic acid) [nM]	IC50 (CYP26A1 [2]; [11]) [nM]	IC50 (CYP26B1; [12]) [nM]	other results
CN(CCOc1ccc(CC2SC(=O)NC2=O)cc1)c1ccccn1 (centres unmarked) [Rosiglitazone]	1670	10800 ± 3100	11900 ± 1020	0.002	3.40	8470 ± 6640			
CCc1oc2ccccc2c1C(=O)c1cc(Br)c(O)c(Br)c1 [Benzbromarone]	9240			0.010	92.4	7570 ± 4930			IC50 (CYP2C8; [10]): 380 nM; IC50 (CYP26A1 [2]): 630 ± 60 nM
COc1cc(C(=O)NS(=O)(=O)c2ccccc2C)ccc1Cc1cn(C)c2ccc(NC(=O)OC3CCCC3)cc12 [Zafirlukast]	1120	644 ± 273	60 ± 20	0.010	3.00	710 ± 230			Binding mechanism, CYP26A1 (CYP26A1 [5]): No binding spectra could be obtained; Selectivity for CYP26A1 (versus CYP26B1) (CYP26A1 [2]; ratio of IC50 values, tazarotenic acid probe): 11.8 fold
CC1(C)CCC(C)(C)c2cc(C3(c4ccc(C(=O)O)cc4)OCCO3)ccc21 [SR11237]							810 ± 340	6860 ± 460	
CC(C)c1nc(CN(C)C(=O)N[C@H](C(=O)N[C@@H](Cc2ccccc2)C[C@H](O)[C@H](Cc2ccccc2)NC(=O)OCc2cncs2)C(C)C)cs1 [Ritonavir]	15300				150				
CCOc1cc(CC(=O)N[C@@H](CC(C)C)c2ccccc2N2CCCCC2)ccc1C(=O)O [Repaglinide]	104		7730 ± 2690	0.026	2.60	610 ± 250			IC50 (CYP2C8; [10]): 11100 nM
CC(C)(O)c1ccccc1CC[C@@H](SCC1(CC(=O)O)CC1)c1cccc(/C=C/c2ccc3ccc(Cl)cc3n2)c1 [Montelukast]	925		120 ± 20		8.90	610 ± 90			
O=C(O)c1ccc2cc(-c3ccc(O)c(C45CC6CC(CC(C6)C4)C5)c3)ccc2c1 [CD437]							10 ± 10	140 ± 50	
CCC(C)n1ncn(-c2ccc(N3CCN(c4ccc(OCC5COC(Cn6cncn6)(c6ccc(Cl)cc6Cl)O5)cc4)CC3)cc2)c1=O (centres unmarked) [Itraconazole]	919		550 ± 90		1.80	160 ± 20			IC50 (CYP2C8; substrate paclitaxel, ref Unpublished Data): 2160 ± 410 nM
OC(Cn1cncn1)(Cn1cncn1)c1ccc(F)cc1F [Fluconazole]	34600		700 ± 190		30794	19800 ± 3210			Inhibition of CYP26A1-catalyzed 4-hydroxyretinoic acid formation (CYP26A1 [6]): not be inhibitors; IC50 (CYP2C8; substrate amodiaquine, ref [50]): 48900 nM; Increase of AUC of orally administered retinoic acid [7]: 4 fold; Increase of Cmax of orally administered retinoic acid [7]: 6 fold
CCC(CC)C(c1ccc(Nc2nc3ccccc3s2)cc1)n1cncn1 (centres unmarked) [Talarazole]							20 ± 10	1 ± 1	
C#C[C@]1(O)CC[C@H]2[C@@H]3CCc4cc(O)ccc4[C@H]3CC[C@@]21C [17α-Ethynylestradiol]	0.5	6540 ± 1220		0.002	0.00085		2240 ± 1330	6730 ± 3770	
Clc1cccc(C(c2ccc3[nH]cnc3c2)n2ccnc2)c1 (centres unmarked) [Liarazole]								10 ± 10	
C[C@@H]1C[C@H]2[C@@H]3CCC4=CC(=O)C=C[C@]4(C)[C@@]3(Cl)[C@@H](O)C[C@]2(C)[C@@]1(O)C(=O)CCl [Mometasone]	0.05	813 ± 112		0.010	0.0005		900 ± 80	6810 ± 1190	
O=c1c(O)c(-c2ccc(O)c(O)c2)oc2cc(O)cc(O)c12 [Quercetin]	50.9		1920 ± 390	0.009	0.45	76200 ± 148000			Inhibition of CYP26A1-catalyzed 4-hydroxyretinoic acid formation (CYP26A1 [6]): not be inhibitors
CC1(C)CCC(C)(C)c2cc(NC(=O)c3ccc(C(=O)O)cc3)ccc21 [AM80]							2890 ± 240	9210 ± 830	
CCc1ccc(CCOc2ccc(CC3SC(=O)NC3=O)cc2)nc1 (centres unmarked) [Pioglitazone]	4490	11700 ± 4000	930 ± 260		38.0	8480 ± 1190			
CCOc1nc2cccc(C(=O)O)c2n1Cc1ccc(-c2ccccc2-c2nnn[nH]2)cc1 [Candesartan]	270	36200 ± 1700	25600 ± 25800		0.38	58300			
CC/C(=C(\c1ccccc1)c1ccc(OCCN(C)C)cc1)c1ccccc1 [Tamoxifen]	323	3340 ± 1550	21400 ± 20300	0.020	6.40	14000 ± 1110			Inhibition of CYP26A1-catalyzed 4-hydroxyretinoic acid formation (CYP26A1 [6]): not be inhibitors
CC1(C)CCC(C)(C)c2cc(C#Cc3ccc(C(=O)O)cc3)ccc21 [EC23]							1600 ± 740	3450 ± 2800	
CC1(C)CCC(C)(C)c2cc(C3(c4ccc5cc(C(=O)O)ccc5c4)SCCS3)ccc21 [MM11253]							20 ± 10	1250 ± 440	
O=C(c1ccc(OCCN2CCCCC2)cc1)c1c(-c2ccc(O)cc2)sc2cc(O)ccc12 [Raloxifene]	1.05	2150 ± 900	1780 ± 770	0.050	0.50	3280 ± 1150			
C=C(c1ccc(C(=O)O)cc1)c1cc2c(cc1C)C(C)(C)CCC2(C)C [Bexarotene]						1600 ± 270			IC50 (CYP26A1 [2]): 1310 ± 480 nM
